In the test the target is T1, human PPARdelta (Homo sapiens, UniProt Q03181).
T1 construct: amino acids S139-Y441; expressed in transfected cells
T1 sequence (Q03181 139-441): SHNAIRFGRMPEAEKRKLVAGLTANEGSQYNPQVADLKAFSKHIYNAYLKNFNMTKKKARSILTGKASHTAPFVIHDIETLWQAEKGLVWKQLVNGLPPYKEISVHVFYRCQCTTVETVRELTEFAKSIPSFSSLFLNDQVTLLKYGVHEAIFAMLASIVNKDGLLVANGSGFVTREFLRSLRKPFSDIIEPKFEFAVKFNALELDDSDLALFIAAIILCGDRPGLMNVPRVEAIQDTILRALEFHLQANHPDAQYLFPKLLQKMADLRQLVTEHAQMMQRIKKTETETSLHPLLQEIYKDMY
Kind of test: Cellular PPARdelta assay (luciferase reporter, stably transfected HEK cell line). The class given is cell-based. The conditions noted are these: GR-GAL4-humanPPARdelta-LBD. The protocol: The activity of PPARalpha agonists is determined in a 3-day assay which is described below:
The PPARalpha reporter cell line is cultivated to 80% confluence in DMEM (#41965-039, Invitrogen) which is mixed with the following additions: 10% cs-FCS (fetal calf serum; #SH-30068.03, Hyclone), 0.5 mg/ml zeocin (#R250-01, Invitrogen), 0.5 mg/ml G418 (#10131-027, Invitrogen), 1% penicillin-streptomycin solution (#15140-122, Invitrogen) and 2 mM L-glutamine (#25030-024, Invitrogen). The cultivation takes place in standard cell culture bottles (#353112, Becton Dickinson) in a cell culture incubator at 37° C. in the presence of 5% CO2. The 80%-confluent cells are washed once with 15 ml of PBS (#14190-094, Invitrogen), treated with 3 ml of trypsin solution (#25300-054, Invitrogen) at 37° C. for 2 min, taken up in 5 ml of the DMEM described and counted in a cell counter. After dilution to 500.000 cells/ml, 35,000 cells are seeded in each well of a 96 well microtiter plate with a clear plastic base (#3610, Corning Costar). The plates are incubated in the cell culture incubator at 37° C. and 5% CO2 for 24 h.
PPARalpha Agonists to be Tested are Dissolved in DMSO in a Concentration of 10 mM. This stock solution is diluted in DMEM (#41965-039, Invitrogen) which is mixed with 5% cs-FCS (#SH-30068.03, Hyclone), 2 mM L-glutamine (#25030-024, Invitrogen) and the previously described antibiotics (zeocin, G418, penicillin and streptomycin). Test substances are tested in 11 different concentrations in the range from 10 μM to 100 pM.
The medium of the PPARalpha reporter cell line seeded on day 1 is completely removed by aspiration, and the test substances diluted in medium are immediately added to the cells. The dilution and addition of the substances is carried out by a robot (Beckman FX). The final volume of the test substances diluted in medium is 100 μl per well of a 96 well microtiter plate. The DMSO concentration in the assay is less than 0.1% v/v in order to avoid cytotoxic effects of the solvent.
The assay plates are incubated in an incubator at 37° C. and 5% CO2 for 24 h.
The PPARalpha reporter cells treated with the test substances are removed from the incubator, and the medium is aspirated off. The cells are lyzed by pipetting 50 μl of Bright Glo reagent (from Promega) into each well of a 96 well microtiter plate. After incubation at room temperature in the dark for 10 minutes, the microtiter plates are measured in the luminometer (Trilux from Wallac). The measuring time for each well of a microtiter plate is 1 sec.
The raw data from the luminometer are transferred into a Microsoft Excel file. Dose-effect plots and EC50 values of PPAR agonists are calculated using the XL.Fit program as specified by the manufacturer (IDBS).
The potency of substances which bind to human PPARdelta and activate it in an agonistic manner is analyzed using a stably transfected HEK cell line (HEK=human embryo kidney) which is referred to here as PPARdelta reporter cell line. In analogy to the assay described for PPARalpha, the PPARdelta reporter cell line also contains two genetic elements, a luciferase reporter element (pdeltaM-GAL4-Luc-Zeo) and a PPARdelta fusion protein (GR-GAL4-humanPPARdelta-LBD) which mediates expression of the luciferase reporter element depending on a PPARdelta ligand. The stably and constitutively expressed fusion protein GR-GAL4-humanPPARdelta-LBD binds in the cell nucleus of the PPARdelta reporter cell line via the GAL4 protein portion to the GAL4 DNA binding motifs 5′-upstream of the luciferase reporter element which is stably integrated in the genome of the cell line. There is only little expression of the luciferase reporter gene in the absence of a PPARdelta ligand if fatty acid-depleted fetal calf serum (cs-FCS) is used in the assay. PPARdelta ligands bind and activate the PPARdelta fusion protein and thereby stimulate expression of the luciferase reporter gene. […]
Background: In a reporter assay the amount or activity of a reporter protein is the signal.
Take `COc1ccc(C(=O)NCCc2ccc(S(=O)(=O)Nc3nnc(C(C)C)s3)cc2)c(OC)n1` [Example 5, N-{2-[4-(5-Isopropyl-[1,3,4]thiadiazol-2-ylsulfamoyl)-phenyl]-ethyl}-2,6-dimethoxy-nicotinamide]: the response was half-maximal at 1100 nM (EC50).

As for `CC(C)c1nnc(NS(=O)(=O)c2ccc(CNC(=O)c3ccc(C(F)(F)F)cc3)cc2)s1` [Example 24, N-[4-(5-Isopropyl-[1,3,4]thiadiazol-2-ylsulfamoyl)-benzyl]-4-trifluoromethyl-benzamide], the midpoint of the response, the EC50, lay at 760 nM.

`COc1ccc(C(C)(C)C)cc1C(=O)NCCc1ccc(S(=O)(=O)Nc2nnc(C(C)C)s2)cc1` [Example 2, 5-tert-Butyl-N-{2-[4-(5-isopropyl-[1,3,4]thiadiazol-2-ylsulfamoyl)-phenyl]-ethyl}-2-methoxy-benzamide]: the EC50 (usually the concentration that produces a half-maximal response) worked out at 440 nM. Compared with the last molecule, the EC50 is about 1.7-fold lower.

In turn, `Cc1ccc(Cl)cc1C(=O)NCCc1ccc(S(=O)(=O)Nc2nnc(-c3ccccc3)s2)cc1` [Example 32, 5-Chloro-2-methyl-N-{2-[4-(5-phenyl-[1,3,4]thiadiazol-2-ylsulfamoyl)-phenyl]-ethyl}-benzamide] had an EC50 of 3610 nM.

`CCOc1cc(C(F)(F)F)ccc1C(=O)NCC(C)c1ccc(S(=O)(=O)Nc2nnc(C(C)C)s2)cc1` (single isomer, unassigned) [Example 43b] registered a 50% effective concentration (EC50) of 20 nM. This EC50 is about 180-fold lower than that of the molecule before.

As to `CCOc1cc(C(F)(F)F)ccc1C(=O)NCC(C)c1ccc(S(=O)(=O)Nc2nnc(C(C)C)s2)cc1` (single isomer, unassigned) [Example 43a], the EC50 amounted to 40 nM. This EC50 is about 2-fold higher than that of the molecule before.

Take `CCOc1cc(C(F)(F)F)ccc1C(=O)NCC(C)c1ccc(S(=O)(=O)Nc2nnc(C(C)C)s2)cc1` (racemic) [Example 43, 2-Ethoxy-N-{2-[4-(5-isopropyl-[1,3,4]thiadiazol-2-ylsulfamoyl)-phenyl]-propyl}-4-trifluoromethyl-benzamide]: the response was half-maximal at 20 nM (EC50).

With `CCOc1cc(C(F)(F)F)ccc1C(=O)NCC(CC)c1ccc(S(=O)(=O)Nc2nnc(C(C)C)s2)cc1` (single isomer, unassigned) [Example 44a], the EC50 was 40 nM. This EC50 is about 2-fold higher than that of the molecule before.

As to `Cc1cc(Br)c(C(=O)NCCc2ccc(S(=O)(=O)Nc3nnc(C(C)C)s3)cc2)s1` [Example 47, 3-Bromo-5-methyl-thiophene-2-carboxylic acid {2-[4-(5-isopropyl-[1,3,4]thiadiazol-2-ylsulfamoyl)-phenyl]-ethyl}-amide], a half-maximal response (EC50) required 60 nM. Compared with the last molecule, the EC50 is about 1.5-fold higher.

Consider `CC(C)(C)c1nnc(NS(=O)(=O)c2ccc(CCNC(=O)c3cc(Cl)ccc3Cl)cc2)s1` [Example 35, N-{2-[4-(5-tert-Butyl-[1,3,4]thiadiazol-2-ylsulfamoyl)-phenyl]-ethyl}-2,5-dichloro-benzamide], for which the EC50 was 2800 nM. Compared with the last molecule, the EC50 is about 47-fold higher.

As to `COc1cc(C(F)(F)F)ccc1C(=O)NCCc1ccc(S(=O)(=O)Nc2nnc(C(C)C)s2)cc1` [Example 1, N-{2-[4-(5-Isopropyl-[1,3,4]thiadiazol-2-ylsulfamoyl)-phenyl]-ethyl}-2-methoxy-4-trifluoromethyl-benzamide], the response was half-maximal at 110 nM (EC50). This EC50 is about 25-fold lower than that of the molecule before.

`CCOc1cc(C(F)(F)F)ccc1C(=O)NCC(CC)c1ccc(S(=O)(=O)Nc2nnc(C(C)C)s2)cc1` (single isomer, unassigned) [Example 44b] returned a 50% effective concentration (EC50) of 10 nM. Compared with the last molecule, the EC50 is about 11-fold lower.
